Measured values as given in patent US20220404341A1, “METHODS AND APPARATUS FOR MEASURING IMMUNE MEDIATED TUMOROID RESPONSES” (VITROSCAN B.V., priority 2019, published 2022).

How the values were obtained:
Assay type in all cases: cell-based, human
[1] = tested on: ovarian cancer tumoroids; test: ex vivo 3D patient derived tumour culture with 3D imaging, ovarian cancer samples; settings: for area size of small objects: FIG. 5 (same sample as FIG. 4)
[2] = tested on: patient derived tumour cultures; test: Selection Factor (tumoroids' area decrease) across patient samples; settings: for immune reaction reducing the number of tumour cells (Selection Factor metric across samples): FIGS. 8 and 9, alone or in combination, naïve patient sample; for Tumoroids' area decrease (%) as Selection Factor, effect when used alone: experiments shown in FIG. 8
[3] = tested on: IFN-γ; test: IFN-γ production in treated patient derived tumour cultures; settings: FIG. 7; IFN-γ is secreted by activated T-cells
[4] = tested on: Mesothelioma tumour sample; test: ex vivo 3D patient derived tumour culture with 3D imaging, mesothelioma sample; settings: FIG. 3
[5] = tested on: lung tumour sample; test: ex vivo 3D patient derived tumour culture with 3D imaging, lung tumour sample; settings: FIG. 6

Compound | area size of small objects ([1]; ovarian tumour sample) | immune reaction reducing the number of tumour cells (Selection Factor metric across samples) [2] | activating native immune cells to kill tumoroids (total area of objects larger than 422 μm^2 and of objects smaller than 160 μm^2) ([1]; ovarian cancer samples of FIG. 1, one-sided Wilcoxon test) | activating native immune cells to kill tumoroids ([1]; ovarian cancer samples of FIG. 2) | IFN-γ production [3] | immune-mediated tumoroid killing effect [4] | immune-mediated tumoroid killing effect [5] | Tumoroids' area decrease (%) as Selection Factor, effect when used alone [2] | immune-mediated tumoroid killing effect (area size reduction of tumoroid clusters) ([1]; ovarian tumour sample, FIG. 4)
Nc1ncnc2c1ncn2[C@@H]1O[C@@H]2COP(=O)([S-])O[C@@H]3[C@H](O)[C@@H](COP([O-])(=S)O[C@H]2[C@H]1O)O[C@H]3n1cnc2c(N)ncnc21.[Na+].[Na+] (stereo partly shown) [ADU-S100] | area size increase of small objects |  |  |  |  |  |  |  | 
O=C(c1cc(Cc2n[nH]c(=O)c3ccccc23)ccc1F)N1CCN(C(=O)C2CC2)CC1 [olaparib] |  | able to start an immune reaction that effectively reduced the number of tumour cells |  |  |  |  |  |  | 
ipilimumab |  | able to start an immune reaction that effectively reduced the number of tumour cells | effective in activating native immune cells to kill ovarian cancer tumoroids | does not show effectiveness in activating native immune cells to kill tumoroids | increased | immune-mediated tumoroid killing effect | immune-mediated tumoroid killing effect |  | 
nivolumab |  | able to start an immune reaction that effectively reduced the number of tumour cells |  |  |  |  | immune-mediated tumoroid killing effect | do not show any effect when used alone | 
pembrolizumab | area size increase of small objects | able to start an immune reaction that effectively reduced the number of tumour cells |  |  |  |  | immune-mediated tumoroid killing effect | do not show any effect when used alone | immune-mediated tumoroid killing effect
